Patent publication US5279543A, “Device for iontophoretic non-invasive sampling or delivery of substances” (priority 1992, dated 1994)
Several values for one entry are separate records, joined by “and”; a condition that tells them apart may be missing. Equal entries are not always repeated. Entries after “also recorded” stand apart in the source; their conditions may differ. Structures can show the parent of a compound that is named as a salt. One block for each compound: values may come before it.

Assays:
[1] = In vitro iontophoretic delivery of P.S.O.S. from chamber 16A; assay type: in vitro ADME
Procedure: (b) P.S.O.S. (Potassium Sucrose Octa Sulfate) P.S.O.S., 0.6 ml of 1.5 mg/ml solution in a boric buffer is placed in chamber 16A and boric acid buffer alone is placed in chamber 16C of FIG. 1, 2 or 3. Using a direct current of 0.5 mA (0.65 mA/cm^2) transport of P.S.O.S. is observed up to 5 μg/hr.

[2] = charged and uncharged TRH; excised nude mouse skin; cited from earlier work
[3] = Procedure: (1) Leakage tests (without current) using dye and silicone rubber than skin; (2) leakage tests using dye and skin (without current); and (3) iontophoretic tests using the drug solutions and skin (with and without current). Procedures (1) and (2) were evaluated by visually inspecting the cell. […] The activity of the skin 13 and of the samples taken from the receptor chamber was determined post-experimentally. Each experiment lasts approximately 24 hours, ±2 hours, with samples collected hourly. Receptor fluid 17 was magnetically stirred (27), and the collection flow rate was 10 ml/hr.
[4] = Iontophoretic sampling in vitro (Example 2); assay type: in vitro ADME, hairless mouse; details: 0.5 mA, about 2 hr, about 0.63 mA/cm^2; various concentrations; mean of at least two experiments
Procedure: Iontophoretic sampling consists of pulling out chemical substances from the body through the skin by means of electricity. In order to test this method, an iontophoretic in-vitro cell is used (FIGS. 1, 2, 3 or 4). Full-thickness hairless mouse skin 13 (8-13 weeks old) is placed between the two parts of the cell. Solutions of radiolabelled drugs of known concentration in phosphate-buffered saline are circulated 10 ml/hr. beneath the skin. On top of the skin there are two self-adhesive gel electrodes, connected to a power supply which is set up in constant current mode (0.5 mA). Current is applied for measured length of time (about 2 hr.) corresponding to about 0.63 mA/cm^2. After the experiment the gel electrodes are taken for scintillation counting, which reflects the amount of drug absorbed by the gel electrodes. Using different drug concentrations with the same electrical current for the same period of time, a linear correlation between the amount is collected by the electrode and drug concentration is expected.

[5] = In vivo iontophoretic sampling (biosensing) in dog
Source text: The sampling of the radioactive clonidine in vitro is described above. […] The operator is alerted when to administer an injection clondine to maintain the desired level of clonidine in the test dog.

[6] = In vivo sampling with iontophoresis cell on human forearm; details: forearm of person; versus in vitro case
Source text: The procedure and description above for in vitro sampling is used except that the membrane is replaced by the top of the forearm of a human being. The sampling cell used is the one in FIGS. 7, 8, 9A and 9B.

[7] = In vitro iontophoretic sampling of glucose through skin into gel electrodes; assay type: in vitro ADME, hairless mouse (Skh: hr-1); details: for Amount Glucose Measured In Gel Electrode per Sample: four time periods; for Iontophoretic Flux sample (amount of glucose sampled in 2 hours): 0.5 mA, (+) electrode; for Sample-glucose: four cells
Procedure: In order to show the ability of the method to sample glucose through the skin, in vitro studies are conducted using hairless mouse skin as the skin model and the iontophoretic diffusion cells in FIGS. 1-13. The results here are applicable to in-vivo sampling from a mammal, particularly a human being. Two self-adhesive gel electrodes (Kenzgelelc, by Nitto Electric Industry Co., Limited, Osaka, Japan) are placed on the same side of a singe continuous piece of hairless mouse skin (full thickness-about 0.5 mm) (Skh: hr-1, 8-13 weeks old). Under the skin, radiolabelled (^14 C-U)-glucose having known concentration in solution in phosphate-buffered saline (0.9% sodium chloride) is perfused, pH of phosphate is about 7.4. Temperature is ambient.
In the first set of experiments, following the assembly of the cell and initiation of the glucose solution perfusion, current is applied (0.5 milliampere) for 2 hours. The voltage may vary from about 1 to 10 volts. Usually, it is about 5 volts. The important parameter to keep constant is the applied current. The voltage may vary based upon the electrical resistance of the sampling site. Then the gel electrodes are disconnected and tested for radioactivity content by conventional liquid scintillation counting. […]. […] (Electrical conditions in the experiments--same constant direct current (dc) but as iontophoretic delivery may also operate in pulsed current, etc., (the pulsed approach should also perform in a predictable way for sampling).
the second set of experiments, using similar experimental set-up as before, a (^14 C-U)-glucose solution of 0.34 mg/ml glucose is phosphate buffered saline is perfused, and the gel electrodes are replaced every 30 minutes.
Since the skin for each single experiment comes from a different mouse, evaluation of each single diffusion cell (means--samples collected through the same piece of skin), eliminating the first sample (the first 0.5 hr. is slightly higher than the others due to the experimental conditions) was done. […]

Transport of P.S.O.S. ([1]; direct current 0.5 mA (0.65 mA/cm^2), 0.6 ml of 1.5 mg/ml solution): up to 5 μg/hr
Amount of P.S.O.S. transferred ([1]; printed 'with a current' (comparison, same configuration)): only a few nanograms
SMILES: O=S(=O)(O)OC[C@H]1O[C@@](COS(=O)(=O)O)(O[C@H]2O[C@H](COS(=O)(=O)O)[C@@H](OS(=O)(=O)O)[C@H](OS(=O)(=O)O)[C@H]2OS(=O)(=O)O)[C@@H](OS(=O)(=O)O)[C@@H]1OS(=O)(=O)O [P.S.O.S., Potassium Sucrose Octa Sulfate]

SMILES: NC(=O)[C@@H]1CCCN1C(=O)[C@H](Cc1cnc[nH]1)NC(=O)[C@@H]1CCC(=O)N1 [TRH, thyrotropin releasing hormone]
Iontophoretic flux across excised tissue compared with passive diffusion [2]: greater than those obtained by passive diffusion alone

SMILES: Clc1cccc(Cl)c1N=C1NCCN1 [clonidine-HCl, Clonidine HCl]
Rate of penetration through the skin with current ([3]; 0.63 mA/cm^2): 15.0 μg/cm^2 /hr
Mean rate of diffusion into the receptor phase (passive transport rate) ([3]; no current): 0.05 μg/cm^2 /hr
Drug found in the buffered saline of chamber 16C ([3]; no current, after 20 hours): no drug was found
Amount of labelled drug in the buffered saline of chamber 16C ([3]; with current 0.63 mA/cm^2, approximately 20 hours): 5 µg
Linearity of amount sampled versus drug concentration (FIG. 11 and 12) [4]: linearity of the results
Level of radioactive clonidine measured iontophoretically [5]: quickly and accurately
Amount of clonidine sampled in vivo [6]: comparable to that observed in the in vitro case

S.D. for individual diffusion cells (individual mouse) ([7]; 0.34 mg/ml glucose, except cell #3): 4 to 9%
Amount of glucose sampled, average of four separate cells ([7]; 0.34 mg/ml glucose, first 0.5 hr sample eliminated): 0.79 to 0.74 μg
Ratio A/B of glucose sampled ([7]; 0.153 vs 1.07 mg/ml (concentration ratio 0.143)): 0.144
Sample-glucose, Average ([7]; average of samples 1-5 (0 - 2 1/2 hr), 0.34 mg/ml glucose, 15 ml/hr): 0.80 ± 0.19 µg
Amount Glucose Measured In Gel Electrode per Sample ([7]; cell 1, 0.34 mg/ml glucose, 15 ml/hr): 0.825 ± 0.041 µg
Amount Glucose Measured In Gel Electrode per Sample ([7]; cell 2, 0.34 mg/ml glucose, 15 ml/hr): 0.963 ± 0.090 µg
Amount Glucose Measured In Gel Electrode per Sample ([7]; cell 3, 0.34 mg/ml glucose, 15 ml/hr): 0.530 ± 0.115 µg
Amount Glucose Measured In Gel Electrode per Sample ([7]; cell 5, 0.34 mg/ml glucose, 15 ml/hr): 0.727 ± 0.033 µg
Iontophoretic Flux sample (amount of glucose sampled in 2 hours) ([7]; glucose concentration 1.07 mg/ml): 4.9 μg/2 hr and 4.9 +/- 0.7 μg/2 hr
Sample-glucose ([7]; sample 1, 0 - 1/2 hr, 0.34 mg/ml glucose, 15 ml/hr): 0.97 ± 0.12 µg
Sample-glucose ([7]; sample 2, 1/2 - 1 hr, 0.34 mg/ml glucose, 15 ml/hr): 0.79 ± 0.09 µg
Sample-glucose ([7]; sample 3, 1 - 1 1/2 hr, 0.34 mg/ml glucose, 15 ml/hr): 0.76 ± 0.10 µg
Sample-glucose ([7]; sample 4, 1 1/2 - 2 hr, 0.34 mg/ml glucose, 15 ml/hr): 0.75 ± 0.21 µg
Sample-glucose ([7]; sample 5, 2 - 2 1/2 hr, 0.34 mg/ml glucose, 15 ml/hr): 0.74 ± 0.24 µg
SMILES: O=C[C@H](O)[C@@H](O)[C@H](O)[C@H](O)CO [glucose]
Correlation between glucose concentration under/in the skin and amount of glucose sampled ([7]; fixed sampling time, same electrical conditions): near-perfect linear correlation; also recorded: clear correlation
Iontophoretic Flux sample (amount of glucose sampled in 2 hours) ([7]; glucose concentration 0.153 mg/ml): 0.705 μg/2 hr and 0.705 +/- 0.095 μg/2 hr
